From paper PMC7993393, “8-Mercaptoguanine-based inhibitors of Mycobacterium tuberculosis dihydroneopterin aldolase: synthesis, in vitro inhibition and docking studies” (Journal of Enzyme Inhibition and Medicinal Chemistry, 2021)

How the values were obtained:
MtFolB [1] = target: T1, MtFolB (Mycobacterium tuberculosis, UniProt P9WNC5); experiment: MtFolB aldolase activity inhibition, continuous fluorescence assay (IC50); assay type: biochemical
T1 construct: made in house

MtFolB [2] = target: T1, MtFolB; experiment: Mode of inhibition and inhibition constants on MtFolB aldolase activity (Lineweaver-Burk); assay type: biochemical; conditions: towards DHNP; for Inhibition mode: Lineweaver-Burk plots; for Ki: enzyme-inhibitor complex, read-out: Kis; for Ki / Kii: 300 nM MtFolB; for Kii: enzyme-substrate-inhibitor complex
[3] = target: 6-hydroxymethyl-7,8-dihydropterin pyrophosphokinase from S. aureus (SaHPPK); parameters: method as in PMID 22276115; conditions: read-out: IC50 against SaHPPK; cited from earlier work
SaFolB = system: SaFolB; parameters: method as in PMID 15027862; conditions: read-out: IC50 against SaFolB; cited from earlier work

T1 sequence (P9WNC5 whole entry): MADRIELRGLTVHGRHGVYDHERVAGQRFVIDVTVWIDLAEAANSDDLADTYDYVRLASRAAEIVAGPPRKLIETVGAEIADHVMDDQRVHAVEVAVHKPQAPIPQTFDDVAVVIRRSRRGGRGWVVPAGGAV

Structure (SMILES) | IC50 (MtFolB [1]) | melting point | also measured
Nc1nc2[nH]c(SCc3ccc4ccccc4c3)nc2c(=O)[nH]1 [Compound 2b, 2-Amino-8-((naphthalen-2-ylmethyl)thio)-1,9-dihydro-6H-purin-6-one] | 1.3 µM | 286 to 287 °C | Improvement of activity (fold) (MtFolB [1]; IC50 compared to benzyl derivative 2a): more than 5 fold
Nc1nc2[nH]c(SCc3ccccc3Cl)nc2c(=O)[nH]1 [Compound 2e, 2-Amino-8-((2-chlorobenzyl)thio)-1,9-dihydro-6H-purin-6-one] | 4.2 µM | – | –
Nc1nc2[nH]c(SCc3ccccc3F)nc2c(=O)[nH]1 [Compound 2c, 2-Amino-8-((2-fluorobenzyl)thio)-1,9-dihydro-6H-purin-6-one] | 8 µM | 289 to 290 °C | –
Nc1nc2[nH]c(SCC(=O)c3ccc(Cl)cc3)nc2c(=O)[nH]1 [Compound 3b, 2-Amino-8-((2–(4-chlorophenyl)-2-oxoethyl)thio)-1,9-dihydro-6H-purin-6-one] | 0.3 µM | 300 to 316 °C | Inhibition mode (MtFolB [2]): Non-competitive; Ki (MtFolB [2]): 0.4 ± 0.1 µM; Kii (MtFolB [2]): 0.9 ± 0.2 µM
Nc1nc2[nH]c(SCC(=O)Nc3ccc(Cl)cc3)nc2c(=O)[nH]1 [Compound 4e, 2-((2-Amino-6-oxo-6,9-dihydro-1H-purin-8-yl)thio)-N-(4-chlorophenyl)acetamide] | 0.8 µM | – | –
Nc1nc2[nH]c(SCC(=O)NCc3ccccc3)nc2c(=O)[nH]1 [Compound 4c, 2-((2-Amino-6-oxo-6,9-dihydro-1H-purin-8-yl)thio)-N-benzylacetamide] | 12.3 µM | – | –
Nc1nc2[nH]c(SCc3ccc(Br)cc3)nc2c(=O)[nH]1 [Compound 2h, 2-Amino-8-((4-bromobenzyl)thio)-1,9-dihydro-6H-purin-6-one] | 3 µM | – | –
CCCCCCCc1ccc(NC(=O)CSc2nc3c(=O)[nH]c(N)nc3[nH]2)cc1 [Compound 4h, 2-((2-Amino-6-oxo-6,9-dihydro-1H-purin-8-yl)thio)-N-(4-heptylphenyl)acetamide] | 0.4 µM | > 310 °C | Inhibition mode (MtFolB [2]): Non-competitive; Ki (MtFolB [2]): 0.5 ± 0.1 µM; Kii (MtFolB [2]): 1.2 ± 0.2 µM
Nc1nc2[nH]c(SCc3ccc(Cl)cc3)nc2c(=O)[nH]1 [Compound 2f, 2-Amino-8-((4-chlorobenzyl)thio)-1,9-dihydro-6H-purin-6-one] | 2.2 µM | 291 to 294 °C | –
Nc1nc2[nH]c(SCC(=O)Nc3ccc(Br)cc3)nc2c(=O)[nH]1 [Compound 4f, 2-((2-Amino-6-oxo-6,9-dihydro-1H-purin-8-yl)thio)-N-(4-bromophenyl)acetamide] | 0.5 µM | > 310 °C | Inhibition mode (MtFolB [2]): Competitive; Ki (MtFolB [2]): 0.1 ± 0.03 µM
CCCc1ccc(NC(=O)CSc2nc3c(=O)[nH]c(N)nc3[nH]2)cc1 [Compound 4g, 2-((2-Amino-6-oxo-6,9-dihydro-1H-purin-8-yl)thio)-N-(4-propylphenyl)acetamide] | 0.9 µM | – | –
Nc1nc2[nH]c(SCC(=O)Nc3ccc4ccccc4c3)nc2c(=O)[nH]1 [Compound 4b, 2-((2-Amino-6-oxo-6,9-dihydro-1H-purin-8-yl)thio)-N-(naphthalen-2-yl)acetamide] | 0.7 µM | 286 to 289 °C | –
Nc1nc2[nH]c(SCc3ccc(Cl)c(Cl)c3)nc2c(=O)[nH]1 [Compound 2g] | 5.5 µM | 290 to 291 °C | IC50 fold higher (MtFolB [1]; IC50 compared to monosubstituted analog 2f): 2.5 fold
Nc1nc2[nH]c(SCC(=O)Nc3ccc(F)cc3)nc2c(=O)[nH]1 [Compound 4d, 2-((2-Amino-6-oxo-6,9-dihydro-1H-purin-8-yl)thio)-N-(4-fluorophenyl)acetamide] | 2 µM | – | –
Nc1nc2nc(S)[nH]c2c(=O)[nH]1 [8-MG (1), 8-mercaptoguanine] | 0.3 µM | – | IC50 [3]: 41 µM; Inhibition mode (MtFolB [2]): Non-competitive; Ki (MtFolB [2]): 0.3 ± 0.1 µM; Kii (MtFolB [2]): 0.6 ± 0.1 µM; IC50 (SaFolB): 1 µM
Nc1nc2[nH]c(SCc3ccc(F)cc3)nc2c(=O)[nH]1 [Compound 2d, 2-Amino-8-((4-fluorobenzyl)thio)-1,9-dihydro-6H-purin-6-one] | 8 µM | 299 to 300 °C | –
COc1ccccc1C(=O)CSc1nc2nc(N)[nH]c(=O)c2[nH]1 [Compound 3c, 2-Amino-8-((2–(2-methoxyphenyl)-2-oxoethyl)thio)-1,9-dihydro-6H-purin-6-one] | 1.3 µM | – | –
Nc1nc2[nH]c(SCc3ccccc3)nc2c(=O)[nH]1 [Compound 2a, 2-Amino-8-(benzylthio)-1,9-dihydro-6H-purin-6-one] | 7.1 µM | – | –
Nc1nc2[nH]c(SCC(=O)Nc3ccccc3)nc2c(=O)[nH]1 [Compound 4a, 2-((2-Amino-6-oxo-6,9-dihydro-1H-purin-8-yl)thio)-N-phenylacetamide] | 2.2 µM | – | –
Nc1nc2[nH]c(SCC(=O)c3ccccc3)nc2c(=O)[nH]1 [Compound 3a, 2-Amino-8-((2-oxo-2-phenylethyl)thio)-1,9-dihydro-6H-purin-6-one] | 0.9 µM | > 310 °C | –
